This is an account of results in patent US10080758B2, “Tosylate salt of N-[3-[(4aR,7aS)-2-amino-6-(5-fluoropyrimidin-2-yl)-4,4a,5,7-tetrahydropyrrolo[3,4-d][1,3]thiazin-7a-yl]-4-fluoro-phenyl]-5-methoxy-pyrazine-2-carboxamide” (Eli Lilly and Company, priority 2015, dated 2018).

Each structure is given as a SMILES string.

A short description of series [1]: Solid state physical stability versus relative humidity. It is filed as physicochemical. The settings on record: room temperature. The text has this:
Such physical instability is undesirable, particularly for a pharmaceutical drug substance or drug product, both of which are subject to regulatory controls regarding the solid state forms. […] As such, the tosylate salt of N-{3-[(4aR,7aS)-2-amino-6-(5-fluoropyrimidin-2-yl)-4a,5,6,7-tetrahydropyrrolo[3,4-d][1,3]thiazin-7a(4H)-yl]-4-fluoro-phenyl}-5-methoxypyrazine-2-carboxamide essentially avoids the humidity dependent phase transformations associated with the corresponding crystalline free base forms. […] The increased likelihood of the free base to undergo phase transitions during long term storage can lead to variability in properties, such as solubility or dissolution rate, which may compromise the performance of the drug product. It also poses the additional risk of collapse of the crystal structure(s) to an amorphous form or accumulation of defects and disorder, which could lead to chemical instability and reduced shelf-life of the drug product.

Series [2] has as its system Abeta 1-x peptide. The series is described as follows: In vivo inhibition of beta-secretase (brain Abeta 1-x lowering). Also noted: species or system mice. The settings on record: for Abeta 1-x peptide levels reduced, brain cortex / Abeta 1-x peptide levels reduced, brain hippocampus: three hours after administration, compared to vehicle-treated mice. The text has this: Several animal models, including mouse, guinea pig, dog, and monkey, may be used to screen for inhibition of beta-secretase activity in vivo following compound treatment. Animals used in this invention can be wild type, transgenic, or gene knockout animals. For example, the PDAPP mouse model, prepared as described in Games et al., Nature 373, 523-527 (1995), and other non-transgenic or gene knockout animals are useful to analyze in vivo inhibition of Abeta and sAPPbeta production in the presence of inhibitory compounds. Generally, 2 to 12 month old PDAPP mice, gene knockout mice or non-transgenic animals are administered compound formulated in vehicles, such as corn oil, cyclodextran, phosphate buffers, […]®, or other suitable vehicles. One to twenty-four hours following the administration of compound, animals are sacrificed, and brains as well as cerebrospinal fluid and plasma are removed for analysis of Abetas, C99, and sAPP fragments. (See May, et al., Journal of Neuroscience, 31, 16507-16516 (2011)). For standard in vivo pharmacology studies, animals are dosed with various concentrations of compound and compared to a vehicle-treated control group dosed at the same time. For some time course studies, brain tissue, plasma, or cerebrospinal fluid is obtained from selected animals, beginning at time 0 to establish a baseline. Compound or appropriate vehicle is administered to other groups and sacrificed at various times after dosing. Brain tissue, plasma, or cerebrospinal fluid is obtained from selected animals and analyzed for the presence of APP cleavage products, including Abeta peptides, sAPPbeta, and other APP fragments, for example, by specific sandwich ELISA assays. At the end of the test period, animals are sacrificed and brain tissues, plasma, or cerebrospinal fluid are analyzed for the presence of Abeta peptides, C99, and sAPPbeta, as appropriate. Brain tissues of APP transgenic animals may also be analyzed for the amount of beta-amyloid plaques following compound treatment. “Abeta 1-x peptide” as used herein refers to the sum of Abeta species that begin with residue 1 and ending with a C-terminus greater than residue 28. This detects the majority of Abeta species and is often called “total Abeta”.

The nature of series [3]: Solvent retained in the crystal. It counts as physicochemical.
Series [4] deals with Abeta released by primary cortical neurons from PDAPP embryos. The series is described as follows: PDAPP primary neuronal assay (Abeta ELISA). It counts as cell-based. The settings on record: Mus musculus, Primary cortical neuron; 24 hours incubation; Abeta 1-42; Mean ± SEM; read-out: PDAPP Neuron A-beta (1-42) ELISA IC50.

For the molecule `COc1cnc(C(=O)Nc2ccc(F)c([C@]34CN(c5ncc(F)cn5)C[C@@H]3CN=C(N)S4)c2)cn1.O` [Crystalline Form 2, Crystalline Form 2 N-[3-[(4aR,7aS)-2-Amino-6-(5-fluoropyrimidin-2-yl)-4,4a,5,7-tetrahydropyrrolo[3,4-d][1,3]thiazin-7a-yl]-4-fluoro-phenyl]-5-methoxy-pyrazine-2-carboxamide (Hydrated)], the “relative humidity at which the crystal form is present / stable” value is listed as “greater than 15 % relative humidity” in series [1] and “above 15 % relative humidity” in series [1] (listed as crystalline form 2).
Consider `COc1cnc(C(=O)Nc2ccc(F)c([C@]34CN(c5ncc(F)cn5)C[C@H]3CSC(N)=N4)c2)cn1` [N-[3-[(4aR,7aS)-2-amino-6-(5-fluoropyrimidin-2-yl)-4,4a,5,7-tetrahydropyrrolo[3,4-d][1,3]thiazin-7a-yl]-4-fluoro-phenyl]-5-methoxy-pyrazine-2-carboxamide], for which, in series [2], the CNS penetration entry was “demonstrate CNS penetration”.
Consider `COc1cnc(C(=O)Nc2ccc(F)c([C@]34CN(c5ncc(F)cn5)C[C@H]3CSC(N)=N4)c2)cn1.Cl` [Preparation 46, N-[3-[(4aR,7aS)-2-Amino-6-(5-fluoropyrimidin-2-yl)-4,4a,5,7-tetrahydropyrrolo[3,4-d][1,3]thiazin-7a-yl]-4-fluoro-phenyl]-5-methoxy-pyrazine-2-carboxamide hydrochloride], for which the “amount of solvent retained in the crystal” value in series [3] was “about 7.7%”. Besides, the “Abeta 1-x peptide levels reduced, brain cortex” value is reported as “approximately 28%” in series [2] (0.3 mg/kg oral dose), approximately 42% in series [2] (1 mg/kg oral dose) and approximately 64% in series [2] (3 mg/kg oral dose). For the same molecule, the “Abeta 1-x peptide levels reduced, brain hippocampus” value in series [2] (0.3 mg/kg oral dose) is “approximately 31%”; in series [2] (1 mg/kg oral dose) it was approximately 39%; in series [2] (3 mg/kg oral dose), approximately 61%. Besides, the IC50 (in general, the concentration that inhibits the measured activity by half) in series [4] stood at 0.228 nM.
